Test results taken from patent US7531646B2, “β-D-ribosidase activity indicators with a chromogenic substrate” (priority 2001, dated 2009).

How the values were obtained:
Type in all cases: cell-based
[1] = test system: Streptococcus milleri; test: Substrate hydrolysis on Columbia agar; conditions: Streptococcus milleri wild; 300 mg/l; 18 hours
[2] = test system: Arcanobacterium haemolyticus; test: Substrate hydrolysis on Columbia agar; conditions: Arcanobacterium haemolyticus NCTC 52; 300 mg/l; 18 hours
[3] = test system: E. coli 0157; test: Substrate hydrolysis on Columbia agar; conditions: 300 mg/l, 18 hours
[4] = test system: Staphylococcus epidermidis; test: Substrate hydrolysis on Columbia agar; conditions: 300 mg/l, 18 hours
[5] = test system: Haemolytic streptococcus B; test: Substrate hydrolysis on Columbia agar; conditions: 300 mg/l, 18 hours
[6] = test system: Enterococcus faecium; test: Substrate hydrolysis on Columbia agar; conditions: 300 mg/l, 18 hours
[7] = test system: Haemolytic streptococcus A; test: Substrate hydrolysis on Columbia agar; conditions: 300 mg/l, 18 hours
[8] = test system: Streptococcus agalactiae; test: Substrate hydrolysis on Columbia agar; conditions: Streptococcus agalactiae NCTC 8181; 300 mg/l; 18 hours
[9] = test system: Salmonella motevideo; test: Substrate hydrolysis on Columbia agar; conditions: Salmonella motevideo SAX 55; 300 mg/l; 18 hours
Text: (§1) This was achieved using a densitometer.
(§2) The same method was used as in Example 1.

[10] = test system: Shigella boydii; test: Substrate hydrolysis on Columbia agar; conditions: 300 mg/l, 18 hours
Text: as §1, §2

[11] = test system: Salmonella alachia; test: Substrate hydrolysis on Columbia agar; conditions: Salmonella alachia SAX 60; 300 mg/l; 18 hours
Text: as §1, §2

[12] = test system: Shigella flexneri; test: Substrate hydrolysis on Columbia agar; conditions: 300 mg/l, 18 hours
Text: as §1, §2

[13] = test system: Vibrio fluvialis; test: Substrate hydrolysis on Columbia agar; parameters: key to the marks not given beside the values; conditions: Vibrio fluvialis NCTC 11327; 300 mg/l; 18 hours
[14] = test system: Aeromonas hydrophila; test: Substrate hydrolysis on Columbia agar; parameters: key to the marks not given beside the values; conditions: Aeromonas hydrophila NCTC 8049; 300 mg/l; 18 hours
[15] = test system: M. morganii; test: Substrate hydrolysis on Columbia agar; conditions: 300 mg/l, 18 hours
[16] = test system: Salmonella hadar; test: Substrate hydrolysis on Columbia agar; conditions: Salmonella hadar SAX 57; 300 mg/l; 18 hours
[17] = test system: Staphylococcus saprophyticus; test: Substrate hydrolysis on Columbia agar; conditions: 300 mg/l, 18 hours
[18] = test system: Enterococcus casseflavus; test: Substrate hydrolysis on Columbia agar; conditions: Enterococcus casseflavus NCTC 12361; 300 mg/l; 18 hours
[19] = test system: Streptococcus oralis; test: Substrate hydrolysis on Columbia agar; conditions: Streptococcus oralis NCTC11427; 300 mg/l; 18 hours
[20] = test system: Providencia stuartii; test: Substrate hydrolysis on Columbia agar; conditions: 300 mg/l, 18 hours
[21] = test system: E. aerogenes; test: Substrate hydrolysis on Columbia agar; conditions: 300 mg/l, 18 hours
[22] = test system: P. rettgeri; test: Substrate hydrolysis on Columbia agar; conditions: P. rettgeri NCTC 7475; 300 mg/l; 18 hours
[23] = test system: Vibrio anguillarum; test: Substrate hydrolysis on Columbia agar; conditions: Vibrio anguillarum NCTC 12159; 300 mg/l; 18 hours
[24] = test system: Aeromonas sobria; test: Substrate hydrolysis on Columbia agar; conditions: Aeromonas sobria NCTC 11215; 300 mg/l; 18 hours
[25] = test system: Bacillus cereus; test: Substrate hydrolysis on Columbia agar; conditions: Bacillus cereus NCTC; 300 mg/l; 18 hours
[26] = test system: Enterococcus raffinosis; test: Substrate hydrolysis on Columbia agar; conditions: Enterococcus raffinosis NCTC 13192; 300 mg/l; 18 hours
[27] = test system: P. mirabilis; test: Substrate hydrolysis on Columbia agar; conditions: 300 mg/l, 18 hours
[28] = test system: E. coli; test: Substrate hydrolysis on Columbia agar; conditions: 300 mg/l, 18 hours
[29] = test system: Gram negative bacteria; test: Substrate hydrolysis on Columbia agar, summary of screen

## 3′,4′-dihydroxyflavone-4′-β-D-glucopyranoside sodium salt [DHF-glucoside]
[1]
  Hydrolysis by Gram positive organisms: −
[2]
  Hydrolysis by Gram positive organisms: −
[3]; E. coli 0157 NCTC 12079
  Hydrolysis by Gram negative bacteria: −
[3]; E. coli 0157 NCTC 12080
  Hydrolysis by Gram negative bacteria: −
[3]; E. coli 0157 NCTC 12900
  Hydrolysis by Gram negative bacteria: −
[3]; E. coli 0157 NCTC 13125
  Hydrolysis by Gram negative bacteria: −
[3]; E. coli 0157 NCTC 13126
  Hydrolysis by Gram negative bacteria: −
[3]; E. coli 0157 NCTC 13127
  Hydrolysis by Gram negative bacteria: −
[3]; E. coli 0157 NCTC 13128
  Hydrolysis by Gram negative bacteria: −
[4]; Staphylococcus epidermidis RB60
  Hydrolysis by Gram positive organisms: −
[4]; Staphylococcus epidermidis RB62
  Hydrolysis by Gram positive organisms: −
[4]; Staphylococcus epidermidis RB63
  Hydrolysis by Gram positive organisms: −
[4]; Staphylococcus epidermidis RB64
  Hydrolysis by Gram positive organisms: ++
[4]; Staphylococcus epidermidis RB65
  Hydrolysis by Gram positive organisms: −
[5]; Haemolytic streptococcus B 1
  Hydrolysis by Gram positive organisms: −
[5]; Haemolytic streptococcus B 2
  Hydrolysis by Gram positive organisms: −
[5]; Haemolytic streptococcus B 3
  Hydrolysis by Gram positive organisms: −
[6]; Enterococcus faecium 1
  Hydrolysis by Gram positive organisms: ++
[6]; Enterococcus faecium 2
  Hydrolysis by Gram positive organisms: ++
[6]; Enterococcus faecium 3
  Hydrolysis by Gram positive organisms: ++
[6]; Enterococcus faecium 4
  Hydrolysis by Gram positive organisms: ++
[6]; Enterococcus faecium 5
  Hydrolysis by Gram positive organisms: ++
[6]; Enterococcus faecium 6
  Hydrolysis by Gram positive organisms: ++
[6]; Enterococcus faecium 7
  Hydrolysis by Gram positive organisms: ++
[6]; Enterococcus faecium 121285 - wild ′99
  Hydrolysis by Gram positive organisms: ++
[7]; Haemolytic streptococcus A 1
  Hydrolysis by Gram positive organisms: −
[7]; Haemolytic streptococcus A 2
  Hydrolysis by Gram positive organisms: −
[7]; Haemolytic streptococcus A 3
  Hydrolysis by Gram positive organisms: −
[8]
  Hydrolysis by Gram positive organisms: −
[9]
  Hydrolysis by Gram negative bacteria: −
[10]; Shigella boydii NCTC 9327
  Hydrolysis by Gram negative bacteria: −
[10]; Shigella boydii NCTC 9732
  Hydrolysis by Gram negative bacteria: −
[10]; Shigella boydii NCTC 9850
  Hydrolysis by Gram negative bacteria: −
[11]
  Hydrolysis by Gram negative bacteria: −
[12]; Shigella flexneri NCTC 8192
  Hydrolysis by Gram negative bacteria: −
[12]; Shigella flexneri NCTC 9723
  Hydrolysis by Gram negative bacteria: −
[12]; Shigella flexneri NCTC 9780
  Hydrolysis by Gram negative bacteria: −
[13]
  Hydrolysis by Gram negative bacteria: ++
[14]
  Hydrolysis by Gram negative bacteria: ++
[15]; M. morganii MMO 1
  Hydrolysis by Gram negative bacteria: +
[15]; M. morganii MMO 2
  Hydrolysis by Gram negative bacteria: +
[15]; M. morganii NCTC 235
  Hydrolysis by Gram negative bacteria: −
[16]
  Hydrolysis by Gram negative bacteria: −
[17]; Staphylococcus saprophyticus 1
  Hydrolysis by Gram positive organisms: −
[17]; Staphylococcus saprophyticus 2
  Hydrolysis by Gram positive organisms: −
[17]; Staphylococcus saprophyticus 3
  Hydrolysis by Gram positive organisms: −
[17]; Staphylococcus saprophyticus 4
  Hydrolysis by Gram positive organisms: −
[17]; Staphylococcus saprophyticus 5
  Hydrolysis by Gram positive organisms: −
[18]
  Hydrolysis by Gram positive organisms: ++
[19]
  Hydrolysis by Gram positive organisms: −
[20]; Providencia stuartii PST 1
  Hydrolysis by Gram negative bacteria: +
[20]; Providencia stuartii PST 2
  Hydrolysis by Gram negative bacteria: +
[21]; E. aerogenes EAE 1
  Hydrolysis by Gram negative bacteria: +
[21]; E. aerogenes NCIMB 10102
  Hydrolysis by Gram negative bacteria: +
[22]
  Hydrolysis by Gram negative bacteria: +
[23]
  Hydrolysis by Gram negative bacteria: −
[24]
  Hydrolysis by Gram negative bacteria: −
[25]
  Hydrolysis by Gram positive organisms: +
[26]
  Hydrolysis by Gram positive organisms: ++
[27]; P. mirabilis NCTC 10975
  Hydrolysis by Gram negative bacteria: −
[27]; P. mirabilis PMI 1
  Hydrolysis by Gram negative bacteria: −
[27]; P. mirabilis PMI 2
  Hydrolysis by Gram negative bacteria: −
[28]; E. coli ECO 2
  Hydrolysis by Gram negative bacteria: −
[28]; E. coli ECO 3
  Hydrolysis by Gram negative bacteria: −
[28]; E. coli ECO 4
  Hydrolysis by Gram negative bacteria: −
[28]; E. coli ECO 5
  Hydrolysis by Gram negative bacteria: −
[28]; E. coli ECO 6
  Hydrolysis by Gram negative bacteria: −
[28]; E. coli ECO 7
  Hydrolysis by Gram negative bacteria: −
[28]; E. coli ECO 8
  Hydrolysis by Gram negative bacteria: −
[28]; E. coli ECO 9
  Hydrolysis by Gram negative bacteria: −
[28]; E. coli ECO 10
  Hydrolysis by Gram negative bacteria: −
[28]; E. coli ECO 11
  Hydrolysis by Gram negative bacteria: −
[28]; E. coli ECO 12
  Hydrolysis by Gram negative bacteria: −
[28]; E. coli NCTC 10418
  Hydrolysis by Gram negative bacteria: −
[29]; of 120 Gram negative bacteria tested
  strains known to be producers of β-glucosidase which did not appear to hydrolyse the substrate: 11 strains
[29]; of 120 Gram negative bacteria tested, 300 mg/l, 18 hours
  Gram negative bacteria tested that hydrolysed the substrate: 20%
[29]; positive Gram negative strains, agar
  colouration and diffusion of positive strains: brown/black colouration which showed no diffusion in agar
